Where two headings read alike, the source gives them in different places.
Experiments:
Human prostate PC3 = assay: FGF-induced resistance, inhibition of BrdU incorporation; format: cell-based; conditions: cell lines derived from solid tumors; 1 ng/ml r-aFGF plus 1 ng/ml r-bFGF vs 50 ng/ml r-bFGF alone
Method: Prior to drug treatment, cells were incubated for 4 days with tumor CM or with r-aFGF ad/or r-bFGF-containing medium, supplemented with 1% FBS (final protein concentration adjusted to 2 mg/ml). The medium was renewed every other day.
The antiproliferative drug effect in histocultures was measured as inhibition of ^3H-thymidine incorporation quantified by autoradiography (Yen, W. C. et al. (1996) Pharm. Res. 13:1305-1312) and, for monolayers, as inhibition of BrdU incorporation or as reduction of total proteins by the sulforhodamine B assay (Au, J. L.-S. et al. (1998) Cancer Res. 58:2141-2148). For the latter, the two assays yielded qualitatively similar results. Cell kill induced by 96-hour drug treatment was monitored by the release of LDH into the culture medium. LDH activity was monitored by the conversion of tetrazolium to formazan (detected at 490 nm).
The experimental conditions are described briefly below. Cells were pretreated with human recombinant r-aFGF and/or r-bFGF for 96 hours and then with drugs for 96 hours. For the studies on cells derived from the human prostate, lung, pharynx, colon and breast cancer cells, the drug effect was determined by the inhibition of BrdU incorporation. For the study on the human leukemic cells, the drug effect was measured by the MTT assay, which measures the number of metabolically active cells (Alley, M. C. et al (1988) Cancer Res 48:589-601).

rat MAT-LyLu cells = assay: Restoration of resistance by recombinant FGF in FGF-immunoprecipitated CM; format: cell-based
Method: The study was performed using rat MAT-LyLu cells. The reversal in CM-induced resistance was detected by measuring the changes in BrdU incorporation in treated samples relative to control samples. The source of CM was lung histocultures for both aFGF and bFGF experiments. The study used two controls: no CM (left solid curves, empty circles); with CM (right solid curves, empty squares). Upper left: CM minus […] (filled square); CM minus aFGF plus r-aFGF (filled circles, overlaps with the right CM-control curve). Upper right: CM minus bFGF (filled square, overlaps with the left control curve); CM minus bFGF plus r-bFGF (filled circle, overlaps with the right CM control curve). Lower left: Both the CM minus aFGF and bFGF (filled square) and the CM minus aFGF and bFGF plus aFGF (filled circle) curves overlap with the left control curve. Lower center: CM minus aFGF and bFGF (filled square, overlaps with left control curve); CM minus aFGF and bFGF plus r-bFGF (filled circle). Lower right: CM minus aFGF and bFGF (filled square, overlaps with left control curve); CM minus aFGF and bFGF plus r-aFGF and r-bFGF (filled circle, overlaps with the right CM-control curve).
aFGF or bFGF was immunoprecipitated with their respective monoclonal antibody (1 microgram/ml), in the presence of Protein G PLUS/protein A agarose (Oncogene). This procedure reduced the bFGF level in the original CM to below the detection limit of 5 pg/ml by the ELISA (Oncogene), and the aFGF level in the concentrated CM to below the detection limit by Western blotting.
The third study determined whether aFGF and/or bFGF are required for the resistance. Endogenous aFGF and/or bFGF were removed from the active CM by immunoprecipitation, and then reconstituted the CM using recombinant proteins. […] The fifth study confirmed that aFGF and bFGF were the main cause of chemoresistance, by using only r-aFGF and r-bFGF (i.e., without the immunoprecipitated CM) to induce resistance (FIG. 3). When given alone, r-aFGF had no effect whereas r-bFGF induced a concentration-dependent resistance. […]

[1] = test system: human prostate cancer PC3 cells; assay: Differential display of genes altered by bFGF treatment; format: cell-based
Method: Differential display was used to identify the down-stream genes that are involved in the bFGF-induced multidrug resistance. […] By this method, the genes that were altered by bFGF treatment in PC3 cells but not in FaDu cells were identified. The identified genes are likely to be associated with the bFGF-induced multidrug resistance.
For differential display, total RNA was isolated from the cells and reverse-transcripted in single strand cDNA. PCR was performed using a pair of T and P primers. […] Five of these bands were reproducibly altered in PC3 cells, but not in FaDu cells. These bands were cut from the gels, reamplified and cloned into pGEM-T vector. Nine different clones were identified and sequenced. The gene sequence was compared to the data in the NCBI GenBank. […] Primers were synthesized for drug resistant cancer cells. Among the nine clones, five were altered reproducibly by bFGF treatment while bFGF had no effect on the remaining four clones. The expression of two of the known genes, TSC22 and VEGF, were increased by 20 to 40%, whereas the expression of the three new genes (temporarily named FSC-1, FSC-2, and FSC-3) were induced by 65%, 300%, and 40%. TSC22 and VEGF are not known to be regulated by bFGF.

[2] = test system: human leukemic cell line CCRF-CEM; assay: FGF-induced resistance to fludarabine, MTT assay; format: cell-based; conditions: 96 h, 96 hour treatment, read-out: concentration required to produce 50%
[3] = test system: Human prostate PC3 tumor cells; assay: aFGF/bFGF-induced resistance and reversal by suramin, sulforhodamine B assay; format: cell-based
Method: The experimental conditions are described briefly below. […] Cell number was measured using the sulforhodamine B assay which measures the total protein concentration. […] The FGF-induced resistance was dependent on the FGF concentrations, with a higher resistance at higher FGF concentrations.

PC3 tumor cells = assay: Doubling time of exponentially growing cells; format: cell-based, human; conditions: treatment with r-bFGF
rat tumor cells = assay: Doubling time of exponentially growing cells; format: cell-based; conditions: treatment with r-bFGF
[4] = no suramin, relative to control

r-aFGF: human recombinant aFGF, identical to the 14 kDa human aFGF except for the extra methionine at the amino terminus
amplification of the r-bFGF effect by r-aFGF (Human prostate PC3): more than 50 fold
induction of resistance (rat MAT-LyLu cells; added to CM depleted of both aFGF and bFGF): did not induce resistance

bFGF: basic Fibroblast Growth Factor used for treatment of PC3 cells
induction of expression of FSC-1 [1]: 65%
induction of expression of FSC-2 [1]: 300%
induction of expression of FSC-3 [1]: 40%

Nc1nc(F)nc2c1ncn2[C@@H]1O[C@H](CO)[C@@H](O)[C@@H]1O [Fludarabine]
IC50 ([2]; absence of FGF): 4 µM
IC50 ([2]; r-aFGF (1 ng/ml) and r-bFGF (3 ng/ml)): 6 µM
IC50 ([3]; Homo sapiens, read-out: IC50, Control (drug treatment only, without FGF treatment), No suramin, drug 96 hours): 5.15 µM
IC50 ([3]; Homo sapiens, read-out: IC50, aFGF 0.3 ng/ml + bFGF 1 ng/ml, No suramin, FGF pretreatment 96 hours, drug 96 hours): 13.5 µM
IC50 ([3]; Homo sapiens, read-out: IC50, aFGF 1 ng/ml + bFGF 3 ng/ml, No suramin, FGF pretreatment 96 hours, drug 96 hours): 21.9 µM
Resistance, Folds, aFGF 0.3 ng/ml + bFGF 1 ng/ml [3, 4]: 2.61 Folds
Resistance, Folds, aFGF 1 ng/ml + bFGF 3 ng/ml [3, 4]: 4.25 Folds
IC50 ([3]; read-out: IC50, Control (without FGF treatment), Suramin, 15 μM, drug 96 hours with 15 μM suramin): 5.2 µM
IC50 ([3]; read-out: IC50, aFGF 0.3 ng/ml + bFGF 1 ng/ml, With suramin, FGF pretreatment 96 hours, drug 96 hours with 15 micromolar suramin): 4.69 µM
IC50 ([3]; read-out: IC50, aFGF 1 ng/ml + bFGF 3 ng/ml, With suramin, FGF pretreatment 96 hours, drug 96 hours with 15 micromolar suramin): 5.85 µM

r-bFGF: human recombinant bFGF, identical to the 18 kDa human bFGF except for the extra methionine at the amino terminus
doubling time, unchanged by treatment (PC3 tumor cells): 24 h
concentration needed relative to the endogenous bFGF concentration in the native CM (rat MAT-LyLu cells; 50 ng/ml versus about 0.9 ng/ml): 55 fold
concentration of exogenous r-bFGF needed to restore the resistance (rat MAT-LyLu cells; CM depleted of both aFGF and bFGF): 50 ng/mL
doubling time, unchanged by treatment (rat tumor cells): 17 h

Source: patent US20040010001A1, “Methods and compositions for modulating cell proliferation and cell death” (priority 1999, published 2004)
